Measurements: article PMC7932537, “Quantitative profiling of protease specificity” (PLoS Computational Biology, 2021)

Test system: MMP-2
Assay: Substrate phage display with NGS: relative probability (RP) of P3-P1' tetramer clusters
Assay type: biochemical, human
Details: MMP2 - no binning; average relative probability (RP) of the P3-P1' tetramer; redundant tetramers have been averaged out

Substance	avg_RP
PYFL	19.1471
PYLL	11.898
SARL	4.5839
SASL	17.7881
SAYL	11.6614
SGAY	6.7841
SLRL	0
SMYL	1.2279
SQHL	0.2367
SWPL	0.4201
SYPL	1.464
TAWL	24.7743
THHL	0.3701
TMAL	0.4939
TMWL	5.1973
TWRL	0
TWSM	0
VAFL	20.6554
VAWL	32.2185
VDQL	0.0432
VEPL	2.5219
VFRL	1.3631
VGHL	31.6783
VGVL	7.4169
VHAL	19.753
VHML	3.9806
VKFL	9.5539
VLFL	1.6486

Substance	avg_RP
VLPL	20.3086
VMKL	0.3599
VMRL	0.4281
VMYL	5.0318
VNFL	7.2989
VNRI	0
VRFM	15.2846
VRHI	19.1429
VRNL	29.2567
VWGL	12.3495
VWHL	10.1663
VWKL	0.2836
VWRL	0.9525
VYAL	19.6906
VYRL	5.0832
WASM	16.5169
YAHM	12.8446
YAHY	10.8158
YAWM	14.9473
YLNL	0.3873
YLNY	1.6791
YLPL	2.3089
YMHI	0
YQSL	16.6669
YRAL	8.2547
YRFM	0
YRSM	5.2577

Same assay, conditions: MMP2 - no binning; average relative probability of the P3-P1' tetramer; redundant tetramers have been averaged out

Substance	avg_RP
PYML	24.9477
PYTL	16.827
QLAM	5.2406
QMSL	0.2763
QQNL	4.2466
RRNL	6.1579
SAWL	18.9346
SFAL	0.5631
SFNL	1.0952
SGEL	0.1149
SGFL	6.5712
SGML	1.3118
SGNL	12.7361
SGPL	2.1571
SGQL	1.0305
SGRL	0.7262
SGSL	7.2251
SLPL	8.6373
SMNL	2.1645
SMRL	0
SQSL	5.003

Substance	avg_RP
SWAW	0.0563
SWSL	0.0547
SYAL	4.7967
SYWL	0.9791
TLHL	2.4714
TLNL	2.7643
TQHL	2.9223
TRNL	12.3403
TWAL	0.4366
TYAL	5.848
VAPL	30.036
VDYL	1.426
VELL	0
VEYL	5.3014
VFAL	11.8827
VFGL	12.5523
VFHM	5.168
VFNL	14.497
VFSM	2.2653
VFWM	10.3215
VGML	28.5913

Substance	avg_RP
VHQM	0
VHRL	1.5304
VHSF	0.0855
VIAL	8.0877
VKHL	14.8595
VLAL	13.5229
VLHL	19.5348
VLMM	2.7364
VLNM	19.025
VLWL	11.1539
VMLL	0.4692
VMLM	0.5571
VMNL	18.6016
VMRM	0.0611
VMSL	14.6983
VNLL	0.5682
VNNL	17.6966
VNSL	13.3292
VNYL	8.4267
VQLL	8.0197
VRML	15.9125

Substance	avg_RP
VRNW	17.7682
VRSL	12.3051
VSEL	24.0996
VSYL	20.2936
VWAL	12.7502
VWGI	3.0103
VWHV	0
VWLL	0.5351
VWNI	4.0144
VWWQ	0.2844
VWYL	3.6672
VYAW	0.6193
VYDL	1.2439
VYML	5.0943
VYSL	16.838
WAHL	7.453
WAPL	23.9342
WESL	0.6249
